Data published in ChEMBL document CHEMBL1201862, “PubChem BioAssay data set” (2004).
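Cells were grown in 96-well plates and exposed to each compound for 48 hours at five concentrations; endpoints were interpolated linearly between bracketing concentrations, or set to the highest concentration if not reached. The concentration for 50% growth inhibition is given as GI50.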 Activity calls are given as the source filed them. Cut-off read from the data, not from the text of the source: active = GI50 up to about 1.1 µM and inactive = higher.

How the values were obtained:
Experiment in all cases: NCI-60 cell line screen, 48 h
UACC-257 = test system: UACC-257
OVCAR-4 = test system: OVCAR-4
RPMI-8226 = test system: RPMI-8226
RXF 393 = test system: RXF 393
HOP-92 = test system: HOP-92
OVCAR-3 = test system: OVCAR-3
786-0 = test system: 786-0
HOP-62 = test system: HOP-62
IGROV-1 = test system: IGROV-1
NCI-H226 = test system: NCI-H226
A498 = test system: A498
BT-549 = test system: BT-549
KM12 = test system: KM12
MDA-N = test system: MDA-N
SF-295 = test system: SF-295
SK-OV-3 = test system: SK-OV-3
HCT-15 = test system: HCT-15
HT-29 = test system: HT-29
HCT-116 = test system: HCT-116
SK-MEL-28 = test system: SK-MEL-28

SMILES: CCc1c(CNC2=NCCN2)c(CC)c(CNC2=NCCN2)c(CC)c1CNC1=NCCN1
- GI50 (UACC-257): > 100 µM (inactive)
- GI50 (OVCAR-4): > 100 µM (inactive)
- GI50 (RPMI-8226): > 100 µM (inactive)
- GI50 (RXF 393): > 100 µM (inactive)
- GI50 (HOP-92): > 100 µM (inactive)
- GI50 (OVCAR-3): > 100 µM (inactive)
- GI50 (786-0): > 100 µM (inactive)
- GI50 (HOP-62): > 100 µM (inactive)
- GI50 (IGROV-1): > 100 µM (inactive)
- GI50 (NCI-H226): > 100 µM (inactive)
- GI50 (A498): > 100 µM (inactive)
- GI50 (BT-549): > 100 µM (inactive)
- GI50 (KM12): > 100 µM (inactive)
- GI50 (MDA-N): > 100 µM (inactive)
- GI50 (SF-295): > 100 µM (inactive)
- GI50 (SK-OV-3): > 100 µM (inactive)
- GI50 (HCT-15): > 100 µM
- GI50 (HT-29): > 100 µM (inactive)
- GI50 (HCT-116): > 100 µM (inactive)
- GI50 (SK-MEL-28): > 100 µM (inactive)

SMILES: Cc1ccc(S(=O)(=O)N2CCC(C(=O)O)(c3ccccc3)CC2)cc1
- GI50 (UACC-257): > 100 µM (inactive)
- GI50 (OVCAR-4): > 100 µM (inactive)
- GI50 (RPMI-8226): > 100 µM (inactive)
- GI50 (RXF 393): > 100 µM (inactive)
- GI50 (HOP-92): > 100 µM (inactive)
- GI50 (OVCAR-3): > 100 µM (inactive)
- GI50 (786-0): > 100 µM (inactive)
- GI50 (HOP-62): > 100 µM (inactive)
- GI50 (IGROV-1): > 100 µM (inactive)
- GI50 (NCI-H226): > 100 µM (inactive)
- GI50 (A498): > 100 µM (inactive)
- GI50 (BT-549): > 100 µM (inactive)
- GI50 (KM12): > 100 µM (inactive)
- GI50 (MDA-N): > 100 µM (inactive)
- GI50 (SF-295): > 100 µM (inactive)
- GI50 (SK-OV-3): > 100 µM (inactive)
- GI50 (HCT-15): > 100 µM
- GI50 (HT-29): > 100 µM (inactive)
- GI50 (HCT-116): > 100 µM (inactive)
- GI50 (SK-MEL-28): > 100 µM (inactive)

SMILES: COc1cccc(-c2nnc3c(-c4ccccc4)nc4ccccc4n23)c1
- GI50 (UACC-257): 17.9 µM (inactive)
- GI50 (OVCAR-4): 9.86 µM (inactive)
- GI50 (RPMI-8226): 3.45 µM (inactive)
- GI50 (RXF 393): 8.38 µM (inactive)
- GI50 (HOP-92): 28 µM (inactive)
- GI50 (OVCAR-3): 12.7 µM (inactive)
- GI50 (786-0): 49.1 µM (inactive)
- GI50 (HOP-62): 58.1 µM (inactive)
- GI50 (IGROV-1): 21.6 µM (inactive)
- GI50 (NCI-H226): 57.3 µM (inactive)
- GI50 (A498): 6.58 µM (inactive)
- GI50 (BT-549): 35.9 µM (inactive)
- GI50 (KM12): 4.94 µM (inactive)
- GI50 (MDA-N): 3.5 µM (inactive)
- GI50 (SF-295): 35.6 µM (inactive)
- GI50 (SK-OV-3): 73.8 µM (inactive)
- GI50 (HCT-15): 7.23 µM
- GI50 (HT-29): 19.2 µM (inactive)
- GI50 (HCT-116): 19.7 µM (inactive)
- GI50 (SK-MEL-28): > 77.4 µM (inactive)

SMILES: CC(C)(C)OC(=O)NCCCNC1(c2cc3ccccc3s2)CCCCC1
- GI50 (UACC-257): 15.8 µM (inactive)
- GI50 (OVCAR-4): 15.2 µM (inactive)
- GI50 (RPMI-8226): 3.84 µM (inactive)
- GI50 (RXF 393): 14.8 µM (inactive)
- GI50 (HOP-92): 10 µM (inactive)
- GI50 (OVCAR-3): 13.8 µM (inactive)
- GI50 (786-0): 14.9 µM (inactive)
- GI50 (HOP-62): 14.4 µM (inactive)
- GI50 (IGROV-1): 16.7 µM (inactive)
- GI50 (NCI-H226): 29 µM (inactive)
- GI50 (A498): 15.6 µM (inactive)
- GI50 (BT-549): 13.6 µM (inactive)
- GI50 (KM12): 17 µM (inactive)
- GI50 (MDA-N): 15.1 µM (inactive)
- GI50 (SF-295): 14.8 µM (inactive)
- GI50 (SK-OV-3): 13.2 µM (inactive)
- GI50 (HCT-15): 14.9 µM
- GI50 (HT-29): 3.15 µM (inactive)
- GI50 (HCT-116): 12 µM (inactive)
- GI50 (SK-MEL-28): 14.9 µM (inactive)

SMILES: O=C([O-])C(O)C(O)C(=O)O.[K+] (stereo not given) [POTASSIUM HYDROGENTARTRATE]
- GI50 (UACC-257): > 100 µM (inactive)
- GI50 (OVCAR-4): > 100 µM (inactive)
- GI50 (RPMI-8226): > 100 µM (inactive)
- GI50 (RXF 393): > 100 µM (inactive)
- GI50 (HOP-92): > 100 µM (inactive)
- GI50 (OVCAR-3): > 100 µM (inactive)
- GI50 (786-0): > 100 µM (inactive)
- GI50 (HOP-62): > 100 µM (inactive)
- GI50 (IGROV-1): > 100 µM (inactive)
- GI50 (NCI-H226): > 100 µM (inactive)
- GI50 (A498): > 100 µM (inactive)
- GI50 (BT-549): > 100 µM (inactive)
- GI50 (KM12): > 100 µM (inactive)
- GI50 (MDA-N): > 100 µM (inactive)
- GI50 (SF-295): > 100 µM (inactive)
- GI50 (SK-OV-3): > 100 µM (inactive)
- GI50 (HCT-15): > 100 µM
- GI50 (HT-29): > 100 µM (inactive)
- GI50 (HCT-116): > 100 µM (inactive)
- GI50 (SK-MEL-28): > 100 µM (inactive)

SMILES: CC1=C(O)C(O)=C(C2=C(O)C(O)=C(C)C(=O)C2=O)C(=O)C1=O
- GI50 (UACC-257): 35.6 µM (inactive)
- GI50 (OVCAR-4): 24.6 µM (inactive)
- GI50 (RPMI-8226): 34.3 µM (inactive)
- GI50 (RXF 393): 26.7 µM (inactive)
- GI50 (HOP-92): 29.9 µM (inactive)
- GI50 (OVCAR-3): 30.8 µM (inactive)
- GI50 (786-0): 41.7 µM (inactive)
- GI50 (HOP-62): 44 µM (inactive)
- GI50 (IGROV-1): 43.4 µM (inactive)
- GI50 (NCI-H226): 35.2 µM (inactive)
- GI50 (A498): 31 µM (inactive)
- GI50 (BT-549): 31 µM (inactive)
- GI50 (KM12): 38.5 µM (inactive)
- GI50 (MDA-N): 40.9 µM (inactive)
- GI50 (SF-295): 31.3 µM (inactive)
- GI50 (SK-OV-3): 37.2 µM (inactive)
- GI50 (HCT-15): > 100 µM
- GI50 (HT-29): 59.3 µM (inactive)
- GI50 (HCT-116): 46.7 µM (inactive)
- GI50 (SK-MEL-28): 29.2 µM (inactive)

SMILES: C=CCN(c1cc(OCc2ccccc2)c2[nH]cc(C)c2c1)S(C)(=O)=O
- GI50 (UACC-257): 52.7 µM (inactive)
- GI50 (OVCAR-4): 34.4 µM (inactive)
- GI50 (RPMI-8226): 39.4 µM (inactive)
- GI50 (RXF 393): 23.1 µM (inactive)
- GI50 (HOP-92): 44 µM (inactive)
- GI50 (OVCAR-3): 25 µM (inactive)
- GI50 (786-0): 33.8 µM (inactive)
- GI50 (HOP-62): 39 µM (inactive)
- GI50 (IGROV-1): 88.7 µM (inactive)
- GI50 (NCI-H226): 28.7 µM (inactive)
- GI50 (A498): 29.2 µM (inactive)
- GI50 (BT-549): > 100 µM (inactive)
- GI50 (KM12): 51.4 µM (inactive)
- GI50 (MDA-N): 89.7 µM (inactive)
- GI50 (SF-295): 31.5 µM (inactive)
- GI50 (SK-OV-3): 37.3 µM (inactive)
- GI50 (HCT-15): > 100 µM
- GI50 (HT-29): 60.8 µM (inactive)
- GI50 (HCT-116): 66.4 µM (inactive)
- GI50 (SK-MEL-28): 48.8 µM (inactive)
